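The compound was tested at five concentrations on cells cultured in 96-well plates, with a 48-hour exposure period. At the TGI there is no net growth.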
Key:
Assay in all cases: NCI anticancer screen, dose series, 48 h
OVCAR-8 ovarian = system: OVCAR-8 ovarian
HS 578T breast = system: HS 578T breast
ACHN renal = system: ACHN renal
CAKI-1 renal = system: CAKI-1 renal
MDA-MB-435 = system: MDA-MB-435
A498 renal = system: A498 renal
HCT-15 colon = system: HCT-15 colon
LOX IMVI melanoma = system: LOX IMVI melanoma
HCT-116 colon = system: HCT-116 colon
SK-OV-3 ovarian = system: SK-OV-3 ovarian
NCI-H460 lung = system: NCI-H460 lung
SNB-75 CNS = system: SNB-75 CNS
DU-145 prostate = system: DU-145 prostate
MALME-3M melanoma = system: MALME-3M melanoma
A549 NSCLC = system: A549 NSCLC
RXF 393 renal = system: RXF 393 renal
U251 CNS = system: U251 CNS
MCF7 breast = system: MCF7 breast
SW-620 colon = system: SW-620 colon
HT29 colon = system: HT29 colon
IGROV1 ovarian = system: IGROV1 ovarian
SN12C renal = system: SN12C renal
UACC-257 melanoma = system: UACC-257 melanoma
MDA-MB-231 breast = system: MDA-MB-231 breast
NCI-H522 lung = system: NCI-H522 lung
EKVX NSCLC = system: EKVX NSCLC
PC-3 prostate = system: PC-3 prostate
K-562 leukemia = system: K-562 leukemia
SK-MEL-28 melanoma = system: SK-MEL-28 melanoma
SK-MEL-5 melanoma = system: SK-MEL-5 melanoma
MOLT-4 leukemia = system: MOLT-4 leukemia
SF-268 CNS = system: SF-268 CNS
TK-10 renal = system: TK-10 renal
NCI-H226 lung = system: NCI-H226 lung
KM12 colon = system: KM12 colon
NCI/ADR-RES ovarian = system: NCI/ADR-RES ovarian
OVCAR-5 ovarian = system: OVCAR-5 ovarian
RPMI-8226 leukemia = system: RPMI-8226 leukemia
SF-539 CNS = system: SF-539 CNS
HOP-92 NSCLC = system: HOP-92 NSCLC
SK-MEL-2 melanoma = system: SK-MEL-2 melanoma
OVCAR-3 ovarian = system: OVCAR-3 ovarian
OVCAR-4 ovarian = system: OVCAR-4 ovarian
MDA-N = system: MDA-N
786-0 renal = system: 786-0 renal
SR leukemia = system: SR leukemia
M14 melanoma = system: M14 melanoma
T-47D breast = system: T-47D breast
BT-549 breast = system: BT-549 breast
SNB-19 CNS = system: SNB-19 CNS
SF-295 CNS = system: SF-295 CNS
HL-60(TB) leukemia = system: HL-60(TB) leukemia
UACC-62 melanoma = system: UACC-62 melanoma
HOP-62 NSCLC = system: HOP-62 NSCLC
UO-31 renal = system: UO-31 renal
COLO 205 colon = system: COLO 205 colon

O=C1Nc2ccccc2S/C1=C\c1ccc(C(F)(F)F)cc1
TGI (OVCAR-8 ovarian): > 100 µM
TGI (HS 578T breast): > 100 µM
TGI (ACHN renal): > 100 µM
TGI (CAKI-1 renal): 93.3 µM
TGI (MDA-MB-435): > 100 µM
TGI (A498 renal): > 100 µM
TGI (HCT-15 colon): > 100 µM
TGI (LOX IMVI melanoma): > 100 µM
TGI (HCT-116 colon): > 100 µM
TGI (SK-OV-3 ovarian): > 100 µM
TGI (NCI-H460 lung): > 100 µM
TGI (SNB-75 CNS): > 100 µM
TGI (DU-145 prostate): > 100 µM
TGI (MALME-3M melanoma): > 100 µM
TGI (A549 NSCLC): > 100 µM
TGI (RXF 393 renal): > 100 µM
TGI (U251 CNS): > 100 µM
TGI (MCF7 breast): > 100 µM
TGI (SW-620 colon): > 100 µM
TGI (HT29 colon): > 100 µM
TGI (IGROV1 ovarian): > 100 µM
TGI (SN12C renal): > 100 µM
TGI (UACC-257 melanoma): > 100 µM
TGI (MDA-MB-231 breast): > 100 µM
TGI (NCI-H522 lung): > 100 µM
TGI (EKVX NSCLC): > 100 µM
TGI (PC-3 prostate): > 100 µM
TGI (K-562 leukemia): > 100 µM
TGI (SK-MEL-28 melanoma): > 100 µM
TGI (SK-MEL-5 melanoma): > 100 µM
TGI (MOLT-4 leukemia): > 100 µM
TGI (SF-268 CNS): > 100 µM
TGI (TK-10 renal): > 100 µM
TGI (NCI-H226 lung): > 100 µM
TGI (KM12 colon): > 100 µM
TGI (NCI/ADR-RES ovarian): > 100 µM
TGI (OVCAR-5 ovarian): > 100 µM
TGI (RPMI-8226 leukemia): > 100 µM
TGI (SF-539 CNS): > 100 µM
TGI (HOP-92 NSCLC): > 100 µM
TGI (SK-MEL-2 melanoma): > 100 µM
TGI (OVCAR-3 ovarian): > 100 µM
TGI (OVCAR-4 ovarian): > 100 µM
TGI (MDA-N): > 100 µM
TGI (786-0 renal): > 100 µM
TGI (SR leukemia): > 100 µM
TGI (M14 melanoma): > 100 µM
TGI (T-47D breast): > 100 µM
TGI (BT-549 breast): > 100 µM
TGI (SNB-19 CNS): > 100 µM
TGI (SF-295 CNS): > 100 µM
TGI (HL-60(TB) leukemia): > 100 µM
TGI (UACC-62 melanoma): > 100 µM
TGI (HOP-62 NSCLC): > 100 µM
TGI (UO-31 renal): > 100 µM
TGI (COLO 205 colon): > 100 µM

Source: PubChem BioAssay (NCI)
